Measured values published in patent US3954793A, “1-(2-Propynyl)-1 H-indazole compounds” (priority 1973, dated 1976).
Values joined by “and” are separate entries in the source; they are usually repeats but may differ in a detail not shown here. Equal values may be shown once.

Assays:
[1] = test system: polyvalent resistant (CH strain) houseflies; assay: whole plant or invertebrate; format: in vivo
Method: The effect of O-(2-propynyl) oximes with Dimetilan and with GS 13798 was obtained from tests on polyvalent resistant (CH strain) houseflies that had been chilled and to the dorsal region of which was applied an acetone solution of synergist and insecticide at a ratio of two to one. Duplicate tests were performed using 10 four to five-day old female houseflies per test. After dosage, the flies were put in a plastic petri dish with cotton soaked in a sugar-water solution. These doses of insecticide used without synergist caused 10-40% mortality.
(§1) In Table IX, and in the tables following it, the doses of topically applied insecticides and of synergists unless otherwise noted are expressed as micrograms per fly (μg/fly).
The effect of compounds II-C, II-D and II-E with Dimetilan and GS 13798 was determined, following the procedure of Example 5, from tests on polyvalent resistant (CH strain) houseflies. These doses of insecticide used without synergist caused 10-40% mortality.
(§2) The synergistic effect with GS 13005 of compounds I-A, I-B, I-D, I-E, I-F, I-G and I-I was determined from topical application tests to IN/WHO strain, Rutgers A strain and polyvalent CH strain houseflies using the procedures of Example 5. The percent kills of the IN/WHO strain flies after 24 hours are shown in Table XXVIII; of the Rutgers A strain, in Table XXIX; and of the polyvalent CH strain, in Table XXX. The doses of insecticide alone to the CH strain files caused 10-40% mortality.
(§3) The synergistic effect with Diazinon and GS 13005 of various of the benzyl 2-propynyl ethers identified in Tables II and IIa was determined by topical application tests on IN/WHO strain, and Rutgers A strain and polyvalent, resistant, CH strain houseflies using the procedures of Example 5. The percent kills after 24 hours of IN/WHO strain flies are shown in Table XXXI; of Rutgers A strain flies, in Table XXXII; and of CH strain flies, in Table XXXIII. The doses of insecticide alone to the CH strain flies caused 10-40% mortality.
The synergistic effect with pyrethrum of various synergist compounds was determined by topical application tests on polyvalent, resistant CH strain houseflies following the procedure of Example 5. Application of the insecticide alone caused 10-40% mortality.

[2] = test system: Rutgers A strain house flies; assay: topical application, percent kill after 24 hours, resistant Rutgers A strain; format: in vivo, female)
Method: as §1
(§4) The synergistic effect of O-(2-propynyl) oximes with mobam was determined from topical application tests on susceptible, female, IN/WHO strain house flies and from tests on resistant, female, Rutgers A strain house flies. The synergist and insecticide were dissolved in ACS Grade acetone in such quantities that a 1.0 μ liter volume applied to the thorax of 3-to-5 day old CO2 -anesthetized female adult house flies contained the desired dosage. After being treated, the flies were confined, 10 to a plaster petri dish, with 3-5 dishes/treament, and held for 24-hr. observation of mortality. Reconstituted skim milk on cotton dental wicks was provided during the holding period. The percent kills after 24 hours are shown in Table X for the IN/WHO strain and Table XI for the Rutgers A strain.
(§5) The synergistic effect of benzyl 2-propynyl ethers with mobam was determined from topical application tests on IN/WHO and Rutgers A strain houseflies, following the procedure of Example 5. The percent kills after 24 hours are shown in Table XIV for the IN/WHO strain and in Table XV for the Rutgers A strain.
The synergistic effect with Diazinon of compounds I-B, I-D, I-F, I-G, I-H and I-I, identified in Tables I and Ia, was determined from topical application tests on IN/WHO strain houseflies and on Rutgers A strain houseflies by the procedure of Example 5. The percent kills after 24 hours are shown in Table XXV for the IN/WHO strain and Table XXVI for the Rutgers A strain.
as §2, §3
(§6) The synergistic effect on IN/WHO strain flies and Rutgers A strain flies of compound IV-C with GS 13005 and with Diazinon was determined by the topical application procedure of Example 5. The percent kills of IN/WHO strain flies after 24 hours are shown in Tables XXXVI and XXXVII; the percent kills of Rutgers A strain flies are shown in Tables XXXVIII and XXXIX.

[3] = test system: IN/WHO strain house flies; assay: topical application, percent kill after 24 hours, susceptible IN/WHO strain; format: in vivo, female)
Method: as §1, §4, §5
The effects of varying the insecticide dose and the synergist-insecticide ratio are further illustrated, with synergist compounds II-D, II-E, II-F and Mobam insecticide, in Tables XVI, XVII and XVIII. […]
The effect on IN/WHO flies of synergist compound IV-C, identified in Table IV, with mobam was determined by the topical application procedure of Example 5. […]
as §2
as §3, with “mortality. […]” for “mortality.”
as §6

[4] = test system: Swiss albino, white male mice; assay: acute toxicity and synergism of acute toxicity in mice; format: in vivo; details: 48 hours; for number of mice dead, with Dimetilan / Lethality, Dimetilan alone (number of mice dead): eight mice
Method: To determine the acute toxicity of dimetilan alone, eight dosage levels of Dimetilan, ranging from 4 to 32 mg per kg were applied to eight, Swiss, albino, white, male mice per dosage level. The mice weighed approximately 23 to 27 grams and were five to six weeks old. The Dimetilan was administered intraperitoneally in 0.1 ml of corn oil one hour after the administration of the same dose of corn oil alone.
To determine the acute toxicity of the synergist alone, various synergists were administered intraperitoneally at a dose of 1000 mg/kg to each of a group of eight mice. The number of animals dead at the end of 72 hours is reported in the left hand column of Table XXXXVI.
The synergism of the acute toxicity of Dimetilan by various synergists was determined by tests on Swiss albino, white male mice aged five to six weeks and weighing 23 to 27 grams. The synergists and insecticides were dissolved in corn oil and the drugs were dissolved in distilled water. All compounds were administered intraperitoneally by injection in the lower quadrent of the abdomen. The synergist was administered in 0.1 ml of corn oil one hour prior to administration of the insecticide. Eight mice were treated, per dosage, with each synergist. The mice were watched for a minimum of 6 hours while held in a glass jar with bedding individually after intraperitoneal injection of the test solutions. Lethality was noted, the animals were weighed and transferred in cages, and food and water were supplied. Control mice were given 0.1 ml of corn oil at the time of administration of the synergist to the test mice and 0.1 ml corn oil plus Dimetilan at the time of administration of the insecticide to the test mice.
By the same procedure, the synergism of acute toxicity of GS 13005, Secobarbital and 6-dimethylamino-4,4-diphenyl-3-heptanone [Methadone] was determined.

[5] = test system: Wilson strain house flies; format: in vivo, Wilson strain (susceptible); details: for Contact Synergistic Ratio, Pyrolan: LC50 pyrolan alone / LC50 with synergist, synergist to insecticide 5:1 by weight; for Contact Synergistic Ratio, Carbaryl: in vivo
Method: The required solutions of the insecticide and of the synergist compound were prepared in acetone at a concentration of 1 milligram per milliliter. One-pint wide mouth glass jars were coated with the appropriate insecticide-synergist combination by rolling the jars containing aliquots of the appropriate solutions diluted to three milliliters with acetone to deposit, by evaporation, a film of the test materials. The flies were transferred under carbon dioxide anesthesia and held in the jar at room temperature. Perforated aluminum foil was used to cover the jars and to hold cotton saturated with 10% sugar solution. Counts were made at intervals, but the recorded mortality was based on 24-hour kill, rather than knockdown. All prostrate non-moving flies were considered dead. A determination was then made of the contact synergistic ratio [SR], which is the ratio of the LC50 of insecticide alone to the LC50 of the insecticide when applied together with the synergist. The LC50 of the insecticide was estimated from a log-probit plot of percent kill versus dosage. […] The LC50 of the combination of insecticide and synergist was determined at a synergist to insecticide parts by weight ratio of five to one.

male mice = assay: extension of sleeping time of depressant drugs by synergists; format: in vivo, male mice (Swiss albino white); details: for Mean Sleeping Time, Noludar / Relative Sleeping Time, Noludar: Noludar 110 mg/kg; for Relative Sleeping Time, Noludar / Relative Sleeping Time, Secobarbital: treated/control; for Mean Sleeping Time, Secobarbital / Relative Sleeping Time, Secobarbital: Secobarbital 37 mg/kg
Method: The selectivity of the synergist compounds of this invention is illustrated by the results of sleeping-time extension tests and of acute toxicity tests on Swiss albino white male mice.
The effect of various synergist compounds on sleeping time of sodium secobarbital [Secobarbital] and of 3,3-diethyl-5-methyl-2,4-dioxypiperidine [Noludar] was determined by administering the drug, with and without synergist, to approximately 38-day old male mice weighing from 25 to 30 grams. Synergists were administered in each of two doses, 74.0 mg/kg (dilution being 2.0 mg/0.1 ml corn oil), and 110.0 mg/kg (dilution 3.0 mg/0.1 ml oil). Secobarbital was administered at a dose of 37.0 mg/kg (dilution 1.0 mg/0.1 ml water). Noludar was administered at a dose of 110.0 mg/kg (dilution 3.0 mg/0.1 ml water). The synergist was administered one hour prior to administration of the Secobarbital or Noludar. Secobarbital and Noludar sleeping times were obtained for both the control (drug only) and the treated (synergist plus drug) mice by noting the time lapse between the administration of the drug and the recovery of the righting reflex, i.e. when the animal regains conciousness and can walk up an inclined wooden tray with coordination. The relative sleeping time (R.S.) was noted. The R.S. is the extended sleeping time in the treated mice (synergist plus drug) divided by the sleeping time in the control mice (drug only). The mean sleeping time for the treated mice and the R.S. are shown on Table XXXXIV for various synergist compounds.

[6] = insecticide alone at the doses of the CH strain tables, 1440 min
[7] = Dimetilan 8 + synergist 240 mg/kg i.p.
[8] = synergist 110 mg/kg one hour prior
[9] = Dimetilan 8 mg/kg, oil in place of synergist

Structure (SMILES)	mortality, insecticide used without synergist [1, 6]	number of mice dead, with Dimetilan [4, 7]	Contact Synergistic Ratio, Pyrolan [5]	Contact Synergistic Ratio, Carbaryl [5]	Mean Sleeping Time, Noludar (male mice; [8])	Relative Sleeping Time, Noludar (male mice; synergist 110 mg/kg)	Mean Sleeping Time, Secobarbital (male mice; [8])	Relative Sleeping Time, Secobarbital (male mice; synergist 110 mg/kg)	other results
CNC(=O)Oc1cccc2ccc(C)nc12 [GS 13798, 8-(2-methylquinolyl)-N-methylcarbamate, reference compound]	10-40%	–	–	–	–	–	–	–	–
CCOP(=S)(OCC)Oc1cc(C)nc(C(C)C)n1 [Diazinon, O,O-diethyl O-(2-isopropyl-4-methyl-6-pyrimidyl) phosphorothioate, reference compound]	–	–	–	–	–	–	–	–	mortality, insecticide used without synergist ([1]; house fly, in vivo, topical or ocular, 24 h): 10-40%; percent kill after 24 hours, Diazinon alone ([2]; Diazinon 1.0, synergist 0 μg/fly): 0%; percent kill after 24 hours, Diazinon alone ([2]; Diazinon 1.5, synergist 0 μg/fly, 1440 min): 3% and 0%; percent kill after 24 hours, Diazinon alone ([3]; Diazinon 0.02, synergist 0 μg/fly): 3%; percent kill after 24 hours, Diazinon alone ([3]; Diazinon 0.03, synergist 0 μg/fly, 1440 min): 0% and 5%
C#CCn1ncc2cc([N+](=O)[O-])ccc21 [III-A]	–	0	30	143	32 min	1.0	50 min	1.1	–
C#CCOC(c1ccc(Cl)cc1Cl)C(C)[N+](=O)[O-] (stereo not drawn) [IV-A, 2-propynyl 1-(2,4-dichlorophenyl)-2-nitropropyl ether]	–	7	10	134	78 min	2.7	–	–	number of mice dead, with Dimetilan ([4]; Dimetilan 8 + synergist 80 mg/kg i.p.): 4; Mean Sleeping Time, Secobarbital (male mice; synergist 74 mg/kg one hour prior): 56 min; Relative Sleeping Time, Secobarbital (male mice; synergist 74 mg/kg): 2.3
C#CCn1ncc2ccc(Cl)cc21 [III-D]	–	1	25	250	45 min	1.5	55 min	1.2	–
Cc1cc(OC(=O)N(C)C)nn1C(=O)N(C)C [Dimetilan, 1-(dimethylcarbamoyl)-5-methyl-3-pyrazolyl dimethylcarbamate, reference compound]	10-40%	–	–	–	–	–	–	–	Lethality, Dimetilan alone (number of mice dead) ([4]; 4.0 mg/kg i.p.): 0; Lethality, Dimetilan alone (number of mice dead) ([4]; 8.0 mg/kg i.p.): 0; Lethality, Dimetilan alone (number of mice dead) ([4]; 12.0 mg/kg i.p.): 1; Lethality, Dimetilan alone (number of mice dead) ([4]; 16.0 mg/kg i.p.): 3; Lethality, Dimetilan alone (number of mice dead) ([4]; 20.0 mg/kg i.p.): 4; Lethality, Dimetilan alone (number of mice dead) ([4]; 24.0 mg/kg i.p.): 7; Lethality, Dimetilan alone (number of mice dead) ([4]; 28.0 mg/kg i.p.): 8; Lethality, Dimetilan alone (number of mice dead) ([4]; 32.0 mg/kg i.p.): 8; number of mice dead, Dimetilan control (0.1 ml oil), 80 mg/kg [4, 9]: 0; number of mice dead, Dimetilan control (0.1 ml oil), 240 mg/kg [4, 9]: 0; dose level just below that at which Dimetilan alone showed lethality to the mice ([4]; i.p.): 8 mg/kg; lethality to the common house fly, in words ([5]; insecticide alone, common house fly): relatively lethal; 24 hour percent mortality, Dimetilan alone ([3]; Dimetilan 0.031 μg/fly): 0%
